# Columns and labels:
# [1] = system: non-castrate hormone-sensitive and bicalutamide-resistant human prostate cancer xenograft models; details: cited from earlier work
# AR = AR (Homo sapiens, UniProt P10275); details: cited from earlier work
# [2] = Plasma kinetics after single subcutaneous dose of rilpivirine nanosuspension with or without rHuPH20 (Example 1); assay type: in vivo, minipigs; details: minipig, single SC dose 900 mg/3 mL, N=3
# Experimental: Six minipigs with body weights ranging from 20 to 25 kg at the start of the study were used. The minipigs were fasted overnight before dosing. Three minipigs were dosed subcutaneously in the loin with 0.19 mL of the hyaluronidase solution (10,000 U/mL) followed by 900 mg/3 mL of the drug nanosuspension at the same injection site (treatment group A). Three minipigs were dosed subcutaneously in the loin with the 900 mg/3 mL of the control drug suspension (treatment group B—control). The injection volume was 3 mL drug suspension in both treatment groups. Method—Sequential Administration • 1. Flip-off rHuPH20 solution vial flip cap and wipe with isopropyl alcohol wipe. Allow to dry. Attach an 18G transfer needle to a 1 mL syringe. • 2. Draw 0.35 mL into the syringe. • 3. Prime the syringe and set liquid level to 0.25 mL in the syringe. • 4. Remove transfer needle and attach syringe cap to 1 mL syringe. • 5. Mix rilpivirine by horizontally shaking the container 30 times over approximately 25 cm within approximately 10 s (a back and forth arm movement=2 times). Ensure well mixed/fully re-supended. • 6. Flip-off rilpivirine vial flip cap and wipe with isopropyl alcohol wipe. Allow to dry. • 7. Attach 18G transfer needle to 5 mL syringe. • 8. Invert vial and draw >3.2 mL into 5 mL syringe mL (or as much as can be removed from vial). Injecting 1-2 mL of air will facilitate draw. • 9. Detach needle and attach a syringe cap to 5 mL syringe • 10. Invert syringe. Wait 5 minutes for bubbles to settle. • 11. Attach a winged infusion set to the rHuPH20 1 mL syringe. Invert syringe and prime off air so that liquid forms at the tip of the needle. (0.19 mL of rHuPH20 should be in the line) • 12. […] Plasma samples were analysed individually by means of a validated LC-MS/MS method. Pharmacokinetic Data Analysis • The pharmacokinetic profile of the blood plasma samples was evaluated using non-compartmental pharmacokinetic analysis (using individual Cp vs time profiles). Mean plasma concentrations and PK parameters (Cmax, Tmax, t1/2 and AUC values) were measured and the results are provided in Table 1.
# AR, sequence (P10275 whole entry): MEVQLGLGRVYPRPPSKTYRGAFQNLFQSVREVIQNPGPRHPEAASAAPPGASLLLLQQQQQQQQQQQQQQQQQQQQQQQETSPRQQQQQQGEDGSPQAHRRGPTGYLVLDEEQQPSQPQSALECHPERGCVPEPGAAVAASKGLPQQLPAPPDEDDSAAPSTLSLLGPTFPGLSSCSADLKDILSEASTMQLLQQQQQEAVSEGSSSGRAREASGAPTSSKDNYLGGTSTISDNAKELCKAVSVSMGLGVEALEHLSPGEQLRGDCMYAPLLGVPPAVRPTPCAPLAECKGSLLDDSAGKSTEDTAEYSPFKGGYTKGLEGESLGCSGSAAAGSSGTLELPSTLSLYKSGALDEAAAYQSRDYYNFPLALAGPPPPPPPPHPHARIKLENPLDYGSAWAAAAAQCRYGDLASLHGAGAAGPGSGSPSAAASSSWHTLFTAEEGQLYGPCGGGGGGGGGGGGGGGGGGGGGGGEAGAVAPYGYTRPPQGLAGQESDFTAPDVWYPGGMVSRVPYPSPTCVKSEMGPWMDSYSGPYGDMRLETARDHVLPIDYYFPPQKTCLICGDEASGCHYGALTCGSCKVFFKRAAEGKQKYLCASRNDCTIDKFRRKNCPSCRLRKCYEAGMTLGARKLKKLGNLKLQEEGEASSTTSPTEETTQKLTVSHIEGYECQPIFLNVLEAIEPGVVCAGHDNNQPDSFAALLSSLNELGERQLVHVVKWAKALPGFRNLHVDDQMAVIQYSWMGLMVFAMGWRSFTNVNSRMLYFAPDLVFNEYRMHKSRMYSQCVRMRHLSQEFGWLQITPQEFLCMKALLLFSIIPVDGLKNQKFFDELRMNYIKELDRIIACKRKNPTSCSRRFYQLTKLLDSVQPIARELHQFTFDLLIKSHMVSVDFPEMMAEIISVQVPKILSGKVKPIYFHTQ
smiles,measurement,setting,value
"CNC(=O)c1ccc(N2C(=S)N(c3cnc(C#N)c(C(F)(F)F)c3)C(=O)C23CCC3)cc1F [Apalutamide, 4-[7-(6-cyano-5-trifluoromethylpyridin-3-yl)-8-oxo-6-thioxo-5,7-diazaspiro[3.4]oct-5-yl]-2-fluoro-N-methylbenzamide]",tumor response,[1],partial or complete tumor regression
"CC(O)c1cc(C(=O)N[C@@H](C)Cn2ccc(-c3ccc(C#N)c(Cl)c3)n2)n[nH]1 (stereo partly drawn) [Darolutamide, N-{(2S)-1-[3-(3-chloro-4-cyanophenyl)-1H-pyrazol-1-yl]propan-2-yl}-5-(1-hydroxyethyl)-1H-pyrazole-3-carboxamide]",AR binding affinity,AR,high affinity
"Cc1cc(/C=C/C#N)cc(C)c1Nc1ccnc(Nc2ccc(C#N)cc2)n1 [Rilpivirine, 4-[[4-[[4-[(1E)-2-cyanoethenyl]-2,6-dimethylphenyl]amino]-2-pyrimidinyl]amino]benzonitrile]",Tlast,[2]; median,2160 h
same,λz,[2],0.0009 ± 0.00009 h⁻¹
same,AUC(0-inf),[2]; plasma,27000 ± 3200 ng·h/mL

# — patent US20230405094A1, “TREATMENT OR PREVENTION OF A DISEASE OR DISORDER” (Janssen Sciences Ireland Unlimited Company, priority 2020, published 2023)
